Data taken from article PMC8007111, “Novel Potent Muscarinic Receptor Antagonists: Investigation on the Nature of Lipophilic Substituents in the 5- and/or 6-Positions of the 1,4-Dioxane Nucleus” (Journal of Medicinal Chemistry, 2020).

Legend:
hM5 mAChR = target: T1, hM5 mAChR (Homo sapiens, UniProt P08912); test: [3H]NMS inhibition radioligand binding, hM5 in CHO-K1 cell membranes; details: for pKi hM5: [3H]NMS, CHO-K1 cell membranes, mean ± S.E.M.
T1 construct: expressed in transfected cells; host or cells: CHO-K1 (membrane preparation)
T1 sequence (P08912 1-532): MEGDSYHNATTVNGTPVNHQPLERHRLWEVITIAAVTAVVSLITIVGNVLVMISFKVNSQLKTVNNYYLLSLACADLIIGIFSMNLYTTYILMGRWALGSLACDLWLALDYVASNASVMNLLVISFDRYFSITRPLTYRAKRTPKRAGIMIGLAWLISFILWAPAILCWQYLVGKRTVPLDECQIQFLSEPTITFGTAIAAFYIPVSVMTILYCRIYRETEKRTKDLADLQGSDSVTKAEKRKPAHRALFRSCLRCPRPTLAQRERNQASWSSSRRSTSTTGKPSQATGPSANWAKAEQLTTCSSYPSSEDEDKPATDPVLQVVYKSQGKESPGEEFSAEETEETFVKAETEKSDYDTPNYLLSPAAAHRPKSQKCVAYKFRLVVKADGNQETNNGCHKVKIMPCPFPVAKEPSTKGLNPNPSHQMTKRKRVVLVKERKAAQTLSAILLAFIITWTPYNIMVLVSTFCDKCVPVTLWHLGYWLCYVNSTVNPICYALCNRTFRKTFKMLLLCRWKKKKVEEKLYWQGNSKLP
Procedure: (§1) CHO-K1 cells stably transfected with the human muscarinic receptor subtypes (hM1–5) were grown in Dulbecco’s modified Eagle’s medium (DMEM) with nutrient mixture F12 (DMEM/F12, 50/50), containing 10% fetal bovine serum, penicillin (100 U/mL), streptomycin (100 U/mL), L-glutamine (4 mM), and geneticin (G-418, 50 μg/mL) at 37 °C in a 5% CO2 humidified incubator. […] Serum (0.7 mL) was added to inactivate the trypsin, and the cells were spun down by centrifuging at 300g for 5 min. The cells were then resuspended in ice-cold 25 mM sodium phosphate buffer containing 5 mM MgCl2, pH 7.4 (binding buffer) and homogenized using a cell disrupter (Ultra-Turrax, setting 3, 30 s). The homogenate was sedimented by centrifugation (17,000g, 15 min). The supernatant was discarded, and the resulting membrane pellets were resuspended with Ultra-Turrax in the same buffer to give a final protein concentration of 1–2 mg/mL. The protein content was determined by the method of Bradford (1976) with bovine serum albumin (Sigma) as a standard and stored at −80 °C.
(§2) Inhibition radioligand binding assays were conducted as previously described[48],[49] with 0.2 nM [^3H]NMS in binding buffer in a final volume of 250 μL. Nonspecific binding was defined in the presence of 10 μM atropine. Briefly, membrane fractions (about 25–70 μg/mL of protein) were incubated with radioligand and unlabeled test compounds for 2 h at r.t. Bound and free radioactivity were separated by filtering the assay mixture through UniFilter GF/B plates using a FilterMate Cell Harvester (PerkinElmer Life and Analytical Science). The filter bound radioactivity was counted by a TopCount NXT Microplate Scintillation Counter (PerkinElmer Life and Analytical Science). Data (cpm) were normalized to percentage-specific binding and analyzed using a four-parameter logistic equation in GraphPad Prism 5.02; IC50 values were determined, and Ki values were calculated.[59]

hM3 mAChR = target: T2, hM3 mAChR (Homo sapiens, UniProt P20309); test: [3H]NMS inhibition radioligand binding, hM3 in CHO-K1 cell membranes; details: for pKi hM3: [3H]NMS, CHO-K1 cell membranes, mean ± S.E.M.
T2 construct: expressed in transfected cells; host or cells: CHO-K1 (membrane preparation)
Procedure: as §1, §2

hM1 mAChR = target: T3, hM1 mAChR (Homo sapiens, UniProt P11229); test: [3H]NMS inhibition radioligand binding, hM1 in CHO-K1 cell membranes; details: for pKi hM1: [3H]NMS, CHO-K1 cell membranes, mean ± S.E.M.
T3 construct: expressed in transfected cells; host or cells: CHO-K1 (membrane preparation)
T3 sequence (P11229 1-460): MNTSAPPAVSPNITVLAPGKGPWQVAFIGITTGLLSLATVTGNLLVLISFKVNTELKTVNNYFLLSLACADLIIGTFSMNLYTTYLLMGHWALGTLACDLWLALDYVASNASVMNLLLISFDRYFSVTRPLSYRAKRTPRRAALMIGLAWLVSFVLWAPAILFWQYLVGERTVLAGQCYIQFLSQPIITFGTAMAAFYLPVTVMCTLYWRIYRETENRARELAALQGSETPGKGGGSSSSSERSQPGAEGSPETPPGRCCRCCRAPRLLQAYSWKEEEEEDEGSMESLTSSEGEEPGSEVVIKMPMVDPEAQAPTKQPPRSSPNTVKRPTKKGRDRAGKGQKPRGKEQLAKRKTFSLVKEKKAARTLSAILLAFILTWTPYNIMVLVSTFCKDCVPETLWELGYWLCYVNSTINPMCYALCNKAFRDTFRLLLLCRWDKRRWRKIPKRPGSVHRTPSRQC
Procedure: as §1, §2

hM2 mAChR = target: T4, hM2 mAChR (Homo sapiens, UniProt P08172); test: [3H]NMS inhibition radioligand binding, hM2 in CHO-K1 cell membranes; details: for pKi hM2: [3H]NMS, CHO-K1 cell membranes, mean ± S.E.M.
T4 construct: expressed in transfected cells; host or cells: CHO-K1 (membrane preparation)
T4 sequence (P08172 1-466): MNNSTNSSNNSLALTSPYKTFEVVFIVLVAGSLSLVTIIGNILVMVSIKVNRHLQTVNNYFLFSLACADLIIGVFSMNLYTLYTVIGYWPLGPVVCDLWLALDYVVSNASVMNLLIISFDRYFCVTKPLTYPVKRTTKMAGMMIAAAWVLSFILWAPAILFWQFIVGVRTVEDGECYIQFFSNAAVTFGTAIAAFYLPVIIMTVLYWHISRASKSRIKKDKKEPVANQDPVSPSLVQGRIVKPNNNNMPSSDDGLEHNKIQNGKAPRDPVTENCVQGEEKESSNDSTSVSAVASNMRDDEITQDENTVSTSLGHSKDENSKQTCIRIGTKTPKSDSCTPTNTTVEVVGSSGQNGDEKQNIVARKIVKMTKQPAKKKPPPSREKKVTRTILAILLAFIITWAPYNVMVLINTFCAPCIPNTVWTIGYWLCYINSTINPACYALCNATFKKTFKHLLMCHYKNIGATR
Procedure: as §1, §2

hM4 mAChR = target: T5, hM4 mAChR (Homo sapiens, UniProt P08173); test: [3H]NMS inhibition radioligand binding, hM4 in CHO-K1 cell membranes; details: for pKi hM4: [3H]NMS, CHO-K1 cell membranes, mean ± S.E.M.
T5 construct: expressed in transfected cells; host or cells: CHO-K1 (membrane preparation)
T5 sequence (P08173 1-479): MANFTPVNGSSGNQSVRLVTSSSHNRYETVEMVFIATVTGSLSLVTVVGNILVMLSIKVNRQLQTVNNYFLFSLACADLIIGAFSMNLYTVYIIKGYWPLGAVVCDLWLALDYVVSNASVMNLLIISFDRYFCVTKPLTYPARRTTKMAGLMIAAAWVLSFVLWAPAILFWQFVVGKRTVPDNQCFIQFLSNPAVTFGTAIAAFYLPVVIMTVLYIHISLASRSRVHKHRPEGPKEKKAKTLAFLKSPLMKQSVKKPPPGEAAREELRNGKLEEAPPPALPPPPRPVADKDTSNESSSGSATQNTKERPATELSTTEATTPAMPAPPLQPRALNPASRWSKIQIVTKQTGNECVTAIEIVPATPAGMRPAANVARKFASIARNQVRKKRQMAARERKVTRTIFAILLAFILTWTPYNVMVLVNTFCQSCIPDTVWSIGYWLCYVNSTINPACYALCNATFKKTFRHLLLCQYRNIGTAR
Procedure: as §1, §2

T2 sequence (P20309 whole entry): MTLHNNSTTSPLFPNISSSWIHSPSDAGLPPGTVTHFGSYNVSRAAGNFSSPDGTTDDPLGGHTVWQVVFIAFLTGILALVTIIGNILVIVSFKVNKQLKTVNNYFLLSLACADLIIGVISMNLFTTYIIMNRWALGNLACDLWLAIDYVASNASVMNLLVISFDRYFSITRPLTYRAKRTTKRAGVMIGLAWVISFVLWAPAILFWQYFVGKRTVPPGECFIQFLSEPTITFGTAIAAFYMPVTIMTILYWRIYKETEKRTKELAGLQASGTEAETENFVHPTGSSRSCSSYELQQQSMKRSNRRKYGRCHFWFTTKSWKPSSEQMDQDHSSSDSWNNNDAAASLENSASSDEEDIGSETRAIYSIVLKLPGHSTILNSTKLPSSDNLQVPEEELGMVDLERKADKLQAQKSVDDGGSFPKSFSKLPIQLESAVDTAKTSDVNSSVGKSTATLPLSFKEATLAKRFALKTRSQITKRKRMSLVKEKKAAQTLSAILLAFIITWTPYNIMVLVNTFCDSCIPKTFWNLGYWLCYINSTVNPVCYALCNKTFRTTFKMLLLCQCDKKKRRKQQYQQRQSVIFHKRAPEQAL

Compound	pKi hM5 (hM5 mAChR)	pKi hM3 (hM3 mAChR)	pKi hM1 (hM1 mAChR)	pKi hM2 (hM2 mAChR)	pKi hM4 (hM4 mAChR)	M3/M2 selectivity ratio (hM3 mAChR; from binding affinities at hM3 and hM2)	ER (eudismic ratio) hM5 (hM5 mAChR; eutomer vs distomer)	ER (eudismic ratio) hM3 (hM3 mAChR; eutomer vs distomer)	ER (eudismic ratio) hM1 (hM1 mAChR; eutomer vs distomer)	ER (eudismic ratio) hM2 (hM2 mAChR; eutomer vs distomer)	ER (eudismic ratio) hM4 (hM4 mAChR; eutomer vs distomer)
C[N+](C)(C)C[C@@H]1CO[C@H](c2ccccc2)[C@@H](c2ccccc2)O1.[I-] (relative stereo) [18b, 1-((2R*,5R*,6R*)-5,6-Diphenyl-1,4-dioxan-2-yl)-N,N,N-trimethylmethanaminium Iodide]	5.52 ± 0.08	5.81 ± 0.10	6.30 ± 0.09	5.65 ± 0.09	5.40 ± 0.09	–	–	–	–	–	–
C[N+](C)(C)C[C@@H]1CO[C@@H](c2ccc(-c3ccccc3)cc2)CO1.[I-] (relative stereo) [13b, 1-((2R*,5S*)-5-([1,1′-Biphenyl]-4-yl)-1,4-dioxan-2-yl)-N,N,N-trimethylmethanaminium Iodide]	<5	<5	<5	5.49 ± 0.02	<5	–	–	–	–	–	–
C[N+](C)(C)C[C@@H]1CO[C@H](c2ccc(S(=O)(=O)c3ccccc3)cc2)CO1.[I-] (relative stereo) [17a, 1-((2R*,5R*)-5-(4-(Phenylsulfonyl)phenyl)-1,4-dioxan-2-yl)-N,N,N-trimethylmethanaminium Iodide]	5.05 ± 0.08	5.14 ± 0.10	<5	6.39 ± 0.04	<5	–	–	–	–	–	–
C[N+](C)(C)C[C@@H]1COC[C@@H](c2ccc(-c3ccccc3)cc2)O1.[I-] (relative stereo) [4b, 1-((2R*,6R*)-6-([1,1′-Biphenyl]-4-yl)-1,4-dioxan-2-yl)-N,N,N-trimethylmethanaminium Iodide]	<5	<5	<5	5.27 ± 0.12	<5	–	–	–	–	–	–
CN(C)C[C@@H]1COC[C@](c2ccccc2)(C2CCCCC2)O1 (relative stereo) [33b, 1-((2R*,6R*)-6-Cyclohexyl-6-phenyl-1,4-dioxan-2-yl)-N,N-dimethylmethanamine]	8.62 ± 0.17	8.72 ± 0.10	8.86 ± 0.16	7.88 ± 0.08	8.62 ± 0.12	7.0	–	–	–	–	–
C[N+](C)(C)C[C@@H]1CO[C@@H](c2ccc(Cc3ccccc3)cc2)CO1.[I-] (relative stereo) [14b, 1-((2R*,5S*)-5-(4-Benzylphenyl)-1,4-dioxan-2-yl)-N,N,N-trimethylmethanaminium Iodide]	<5	<5	<5	<5	<5	–	–	–	–	–	–
CN(C)C[C@@H]1COC[C@](c2ccccc2)(C2CCCCC2)O1 [(2R,6R)-(+)-33b]	7.16 ± 0.27	6.73 ± 0.06	7.68 ± 0.16	7.17 ± 0.11	7.01 ± 0.08	–	–	–	–	–	–
CN(C)C[C@H]1COC[C@@](c2ccccc2)(C2CCCCC2)O1 [(2S,6S)-(−)-33b]	8.83 ± 0.10	9.02 ± 0.10	9.10 ± 0.28	8.10 ± 0.10	9.09 ± 0.15	–	47	195	26	9	120
C[N+](C)(C)C[C@@H]1CO[C@H](c2ccc(Cc3ccccc3)cc2)CO1.[I-] (relative stereo) [14a, 1-((2R*,5R*)-5-(4-Benzylphenyl)-1,4-dioxan-2-yl)-N,N,N-trimethylmethanaminium Iodide]	5.53 ± 0.13	5.65 ± 0.12	<5	5.65 ± 0.05	<5	–	–	–	–	–	–
C[N+](C)(C)C[C@@H]1CO[C@H](c2ccc(Sc3ccccc3)cc2)CO1.[I-] (relative stereo) [15a, 1-((2R*,5R*)-5-(4-(Phenylthio)phenyl)-1,4-dioxan-2-yl)-N,N,N-trimethylmethanaminium Iodide]	6.00 ± 0.14	6.01 ± 0.11	5.43 ± 0.09	6.70 ± 0.13	5.70 ± 0.01	–	–	–	–	–	–
C[N+](C)(C)C[C@@H]1CO[C@@](c2ccccc2)(C2CCCCC2)CO1.[I-] (relative stereo) [11a, 1-((2R*,5R*)-5-Cyclohexyl-5-phenyl-1,4-dioxan-2-yl)-N,N,N-trimethylmethanaminium Iodide]	7.45 ± 0.08	7.43 ± 0.09	8.01 ± 0.06	7.26 ± 0.08	7.15 ± 0.09	–	–	–	–	–	–
